# Data: paper PMC11995724, “Antibiotic target discovery by integrated phenotypic and activity-based profiling of electrophilic fragments” (Cell chemical biology, 2025)
# Experiment: in vitro
# Conditions: human, hek293t cells
row,Structure (SMILES),"viability at 48 h, 25 µM"
1,"CC1CN(Cc2ccccc2)CC(C)N(C(=O)C(C)Cl)C1 (centres unmarked) [5-B21, 1-(4-benzyl-2,6-dimethyl-1,4-diazepan-1-yl)-2-chloropropan-1-one]",122%
2,"CC(Cl)C(=O)N(C)Cc1ncc(C2CC2)o1 (centres unmarked) [5-B22, 2-chloro-N-[(5-cyclopropyl-1,3-oxazol-2-yl)methyl]-N-methylpropanamide]",66.9%
3,"NC(=O)CCN(C(=O)CCl)c1ccc(F)cc1 [5-C03, 3-[2-chloro-N-(4-fluorophenyl)acetamido]propanamide]",1.62%
4,"Cn1nccc1CN1C[C@@H](F)C[C@H]1CNC(=O)CCl [5-C04, 2-chloro-N-{[(2S,4S)-4-fluoro-1-[(1-methyl-1H-pyrazol-5-yl)methyl]pyrrolidin-2-yl]methyl}acetamide]",117%
5,"COc1cc(NC(=O)CCl)c(OC)cc1Cl [5-C05, 2-chloro-N-(4-chloro-2,5-dimethoxyphenyl)acetamide]",0.731%
6,"Cc1cccc(NC(=O)[C@@H]2CCCN2C(=O)CCl)n1 [5-C06, (2S)-1-(2-chloroacetyl)-N-(6-methylpyridin-2-yl)pyrrolidine-2-carboxamide]",0.946%
7,"O=C(CCl)NCC1CCCCN1C(=O)C(F)(F)F (centres unmarked) [5-C07, 2-chloro-N-{[1-(2,2,2-trifluoroacetyl)piperidin-2-yl]methyl}acetamide]",1.83%
8,"CCc1nc(C2CCCN2C(=O)CCl)no1 (centres unmarked) [5-C08, 2-chloro-1-[2-(5-ethyl-1,2,4-oxadiazol-3-yl)pyrrolidin-1-yl]ethan-1-one]",1.18%
9,"O=C(CCl)NC1CCN(C(=O)C2COc3ccccc3O2)CC1 (centres unmarked) [5-C09, 2-chloro-N-[1-(2,3-dihydro-1,4-benzodioxine-2-carbonyl)piperidin-4-yl]acetamide]",1.13%
10,"CNC(=O)c1ccc(O)c(NC(=O)CCl)c1 [5-C10, 3-(2-chloroacetamido)-4-hydroxy-N-methylbenzamide]",114%
11,"CC(C)C1C(=O)Nc2ccc(Cl)cc2N1C(=O)CCl (centres unmarked) [5-C11, 6-chloro-4-(2-chloroacetyl)-3-(propan-2-yl)-1,2,3,4-tetrahydroquinoxalin-2-one]",-0.0252%
12,"Cc1cc(CN(C(=O)CCl)c2csnc2C)cs1 [5-C12, 2-chloro-N-(3-methyl-1,2-thiazol-4-yl)-N-[(5-methylthiophen-3-yl)methyl]acetamide]",0.6%
13,"Cc1c(CN(CC2CC=CCC2)C(=O)CCl)cnn1C (centres unmarked) [5-C14, 2-chloro-N-[(cyclohex-3-en-1-yl)methyl]-N-[(1,5-dimethyl-1H-pyrazol-4-yl)methyl]acetamide]",0.469%
14,"Cn1nc(C(F)(F)F)cc1CN(C(=O)CCl)C1CCCC1 [5-C16, 2-chloro-N-cyclopentyl-N-{[1-methyl-3-(trifluoromethyl)-1H-pyrazol-5-yl]methyl}acetamide]",0.815%
15,"COc1ccccc1NC(=O)c1ccc(NC(=O)C(C)Cl)cc1 (centres unmarked) [5-C17, 4-(2-chloropropanamido)-N-(2-methoxyphenyl)benzamide]",58%
16,"O=C(CCl)NCC12CCCCC1C2(F)F (centres unmarked) [5-C18, 2-chloro-N-({7,7-difluorobicyclo[4.1.0]heptan-1-yl}methyl)acetamide]",8.39%
17,"CC(Cl)C(=O)Nc1ccc2c(c1)CCC2 (centres unmarked) [5-C19, 2-chloro-N-(2,3-dihydro-1H-inden-5-yl)propanamide]",68.8%
18,"COc1cccc2c1CCC2(CO)NC(=O)CCl (centres unmarked) [5-C20, 2-chloro-N-[1-(hydroxymethyl)-4-methoxy-2,3-dihydro-1H-inden-1-yl]acetamide]",58.2%
19,"CC(Cl)C(=O)Nc1sccc1C(N)=O (centres unmarked) [5-C21, 2-(2-chloropropanamido)thiophene-3-carboxamide]",85.4%

row,Structure (SMILES),"viability at 48 h, 25 µM"
1,"CN1CCN(C(=O)Cc2cccc(NC(=O)CCl)c2)CC1 [5-C22, 2-chloro-N-{3-[2-(4-methylpiperazin-1-yl)-2-oxoethyl]phenyl}acetamide]",1.44%
2,"O=C(CCl)N1CCN(C(=O)c2cn(C3CC3)nn2)CC1 [5-D03, 2-chloro-1-[4-(1-cyclopropyl-1H-1,2,3-triazole-4-carbonyl)piperazin-1-yl]ethan-1-one]",2.35%
3,"CCOC(=O)c1c(NC(=O)C(C)Cl)sc2c1CCC(C)C2 (centres unmarked) [5-D04, ethyl 2-(2-chloropropanamido)-6-methyl-4,5,6,7-tetrahydro-1-benzothiophene-3-carboxylate]",90.9%
4,"O=C(NC1CCCN(C(=O)CCl)C1)c1cc2ccccc2o1 (centres unmarked) [5-D05, N-[1-(2-chloroacetyl)piperidin-3-yl]-1-benzofuran-2-carboxamide]",0.852%
5,"CC(Cl)C(=O)N(C)c1ccccc1 (centres unmarked) [5-D06, 2-chloro-N-methyl-N-phenylpropanamide]",102%
6,"Cc1cccc(N(Cc2c(C3CC3)cnn2C)C(=O)CCl)c1 [5-D07, 2-chloro-N-[(4-cyclopropyl-1-methyl-1H-pyrazol-5-yl)methyl]-N-(3-methylphenyl)acetamide]",0.857%
7,"CC(Cl)C(=O)NC(=O)Nc1ccc2c(c1)OCCO2 (centres unmarked) [5-D08, 3-(2-chloropropanoyl)-1-(2,3-dihydro-1,4-benzodioxin-6-yl)urea]",84.1%
8,"CCN(Cc1ccc(OC)c(F)c1)C(=O)CCl [5-D09, 2-chloro-N-ethyl-N-[(3-fluoro-4-methoxyphenyl)methyl]acetamide]",1.38%
9,"N#Cc1c(NC(=O)CCl)oc(-c2ccco2)c1-c1ccco1 [5-D10, 2-chloro-N-[4'-cyano-2'-(furan-2-yl)-[2,3'-bifuran]-5'-yl]acetamide]",45.5%
10,"CCN(C(=O)CCl)C1CCCCC1 [5-D11, 2-chloro-N-cyclohexyl-N-ethylacetamide]",0.918%
11,"COc1ccc(CCNC(=O)C(C)Cl)cc1 (centres unmarked) [5-D12, 2-chloro-N-[2-(4-methoxyphenyl)ethyl]propanamide]",104%
12,"CC(Cl)C(=O)NCCN1CCn2nccc2C1 (centres unmarked) [5-D13, 2-chloro-N-(2-{4H,5H,6H,7H-pyrazolo[1,5-a]pyrazin-5-yl}ethyl)propanamide]",98.4%
13,"CC(C)CN(C(=O)CCl)C1CC1 [5-D14, 2-chloro-N-cyclopropyl-N-(2-methylpropyl)acetamide]",1.19%
14,"CN(Cc1cc(-c2ccccc2)[nH]n1)C(=O)CCl [5-D15, 2-chloro-N-methyl-N-[(5-phenyl-1H-pyrazol-3-yl)methyl]acetamide]",0.109%
15,"CN(CCOc1ccc(Cl)cc1)C(=O)CCl [5-D16, 2-chloro-N-[2-(4-chlorophenoxy)ethyl]-N-methylacetamide]",0.377%
16,"COc1ccc2c(c1)CCCN(C(=O)C(C)Cl)C2 (centres unmarked) [5-D17, 2-chloro-1-(7-methoxy-2,3,4,5-tetrahydro-1H-2-benzazepin-2-yl)propan-1-one]",90.9%
17,"O=C(CCl)Nc1nc(-c2cccs2)cs1 [5-D18, 2-chloro-N-[4-(thiophen-2-yl)-1,3-thiazol-2-yl]acetamide]",0.312%
18,"CC(Cl)C(=O)Nc1ccc(C2CC(=O)NC(=O)N2)cc1 (centres unmarked) [5-D19, 2-chloro-N-[4-(2,6-dioxo-1,3-diazinan-4-yl)phenyl]propanamide]",92.5%
19,"N#CCCN(Cc1ccco1)C(=O)CCl [5-D20, 2-chloro-N-(2-cyanoethyl)-N-[(furan-2-yl)methyl]acetamide]",1.25%
